Source: ChEMBL document CHEMBL1124193, “Synthesis and bacterial DNA gyrase inhibitory properties of a spirocyclopropylquinolone derivative” (J Med Chem, 1988)
Values after ≈ are worked out from the molar mass of the structure shown.

Columns and labels:
Format in all cases: functional
Staphylococcus aureus = assay: In vitro minimum inhibitory concentration against Staphylococcus aureus (ATCC 29213)
Mus musculus [1] = assay: In vivo antibacterial activity against Escherichia coli (Vogel) in mice administered subcutaneously; settings: sc, read-out: PD50
Mus musculus [2] = assay: In vivo antibacterial activity against Escherichia coli (Vogel) in mice administered perorally; settings: po, read-out: PD50
Enterococcus faecalis = assay: In vitro minimum inhibitory concentration against Streptococcus faecalis (ATCC 29212)
Bacteroides fragilis = assay: In vitro minimum inhibitory concentration against Bacteroides fragilis (ATCC 25285)
Escherichia coli = assay: In vitro minimum inhibitory concentration against Escherichia coli (ATCC […]25922)
Pseudomonas aeruginosa = assay: In vitro minimum inhibitory concentration against Pseudomonas aeruginosa (ATCC 27853)
Streptococcus pneumoniae = assay: In vitro minimum inhibitory concentration against Streptococcus pneumoniae (ATCC 6301)

SMILES | MIC (Staphylococcus aureus) | ED50 (Mus musculus [1]) | ED50 (Mus musculus [2]) | MIC (Enterococcus faecalis) | MIC (Bacteroides fragilis) | MIC (Escherichia coli) | MIC (Pseudomonas aeruginosa) | MIC (Streptococcus pneumoniae)
CN1CCN(c2c(F)cc3c(=O)c(C(=O)O)cn4c3c2OCC42CC2)CC1 | 2 µg/mL (≈ 5.36 µM) | 1.9 mg/kg | 6.3 mg/kg | 8 µg/mL (≈ 21.4 µM) | 8 µg/mL (≈ 21.4 µM) | 0.125 µg/mL (≈ 0.335 µM) | 4 µg/mL (≈ 10.7 µM) | 8 µg/mL (≈ 21.4 µM)
O=C(O)c1cn(C2CC2)c2cc(N3CCNCC3)c(F)cc2c1=O [CIPROFLOXACIN] | 0.25 µg/mL (≈ 0.754 µM) | 0.2 mg/kg | 0.86 mg/kg | 0.5 µg/mL (≈ 1.51 µM) | 2 µg/mL (≈ 6.04 µM) |  |  | 0.25 µg/mL (≈ 0.754 µM)
C[C@H]1COc2c(N3CCN(C)CC3)c(F)cc3c(=O)c(C(=O)O)cn1c23.C[C@H]1COc2c(N3CCN(C)CC3)c(F)cc3c(=O)c(C(=O)O)cn1c23.O [LEVOFLOXACIN] | 2 µg/mL | 3.8 mg/kg | 10.1 mg/kg | 16 µg/mL | 16 µg/mL |  | 32 µg/mL | 
CC1COc2c(N3CCN(C)CC3)c(F)cc3c(=O)c(C(=O)O)cn1c23 (stereo unspecified) [OFLOXACIN] | 0.25 µg/mL (≈ 0.692 µM) | 1.2 mg/kg | 2.2 mg/kg | 2 µg/mL (≈ 5.53 µM) | 0.5 µg/mL (≈ 1.38 µM) |  | 0.5 µg/mL (≈ 1.38 µM) | 
